This experiment relates to MV-4-11 cells. The experiment in a line: Gene expression microarray analysis (Affymetrix PrimeView) and GSEA. It is filed as cell-based, human. The following applies: MV-4-11 cells, 48 hours. Also noted: RFU PODN (11730768_x_at) / Fold change /veh PODN (11730768_x_at) / RFU LINC00158 (11744669_a_at) / Fold change /veh LINC00158 (11744669_a_at) / RFU DUSP10 (11751237_a_at) / Fold change /veh DUSP10 (11751237_a_at) / RFU ID3 (11757404_x_at) / Fold change /veh ID3 (11757404_x_at) / RFU PLEKHG5 (11737974_s_at) / Fold change /veh PLEKHG5 (11737974_s_at) / RFU LRRC4B (11730491_at) / Fold change /veh LRRC4B (11730491_at) / RFU GIMAP4 (11747438_a_at) / Fold change /veh GIMAP4 (11747438_a_at) / RFU KRT8 (11758183_x_at) / Fold change /veh KRT8 (11758183_x_at) / RFU CNN1 (11734310_a_at) / Fold change /veh CNN1 (11734310_a_at) / RFU VPS37D (11726825_at) / Fold change /veh VPS37D (11726825_at) / RFU C10orf10 (11716522_x_at) / Fold change /veh C10orf10 (11716522_x_at) / RFU KIR2DL2 /// KIR2DL4 /// KIR2DL5A /// KIR2DL5B /// KIR2DS1 /// KIR2DS2 /// KIR2DS3 /// KIR2DS4 /// KIR3DL3 /// KIR3DL3 /// KIR3DS1 (11738374_at) / Fold change /veh KIR2DL2 /// KIR2DL4 /// KIR2DL5A /// KIR2DL5B /// KIR2DS1 /// KIR2DS2 /// KIR2DS3 /// KIR2DS4 /// KIR3DL3 /// KIR3DL3 /// KIR3DS1 (11738374_at) / RFU C1QL1 (11718748_at) / Fold change /veh C1QL1 (11718748_at) / RFU TMPRSS4 (11747572_a_at) / Fold change /veh TMPRSS4 (11747572_a_at) / RFU HAMP (11756126_x_at) / Fold change /veh HAMP (11756126_x_at) / RFU RNFT2 (11725882_a_at) / Fold change /veh RNFT2 (11725882_a_at) / RFU NR4A2 (11747474_a_at) / Fold change /veh NR4A2 (11747474_a_at) / RFU ABCC12 (11746883_a_at) / Fold change /veh ABCC12 (11746883_a_at) / RFU TMEM136 (11760407_x_at) / Fold change /veh TMEM136 (11760407_x_at) / RFU CLDN22 /// WWC2 (11732394_at) / Fold change /veh CLDN22 /// WWC2 (11732394_at) / RFU HLA-DPB1 (11760878_x_at) / Fold change /veh HLA-DPB1 (11760878_x_at) / RFU SPINT1 (11716480_a_at) / Fold change /veh SPINT1 (11716480_a_at) / RFU GAP43 (11754022_s_at) / Fold change /veh GAP43 (11754022_s_at) / RFU A4GNT (11735810_at) / Fold change /veh A4GNT (11735810_at) / RFU PRB3 (11715151_x_at) / Fold change /veh PRB3 (11715151_x_at) / RFU TUBB4B (11761932_at) / Fold change /veh TUBB4B (11761932_at) / RFU CAPN14 (11732068_a_at) / Fold change /veh CAPN14 (11732068_a_at) / RFU TMCC2 (11721928_a_at) / Fold change /veh TMCC2 (11721928_a_at) / RFU IRGQ (11745062_a_at) / Fold change /veh IRGQ (11745062_a_at) / RFU FAM174B (11720279_a_at) / Fold change /veh FAM174B (11720279_a_at) / RFU TMPRSS4 (11748680_a_at) / Fold change /veh TMPRSS4 (11748680_a_at) / RFU FAM212B (11763350_a_at) / Fold change /veh FAM212B (11763350_a_at) / RFU PLEKHG5 (11743358_a_at) / Fold change /veh PLEKHG5 (11743358_a_at) / RFU ZSCAN30 (11745921_a_at) / Fold change /veh ZSCAN30 (11745921_a_at) / RFU CMKLR1 (11741424_a_at) / Fold change /veh CMKLR1 (11741424_a_at) / RFU LOC101060620 /// MAPK8IP1 (11723275_at) / Fold change /veh LOC101060620 /// MAPK8IP1 (11723275_at) / RFU SPTSSB (11747773_x_at) / Fold change /veh SPTSSB (11747773_x_at) / RFU PRSS12 (11739890_at) / Fold change /veh PRSS12 (11739890_at) / RFU BIN1 (11741810_x_at) / Fold change /veh BIN1 (11741810_x_at) / RFU WNT11 (11732464_a_at) / Fold change /veh WNT11 (11732464_a_at) / RFU C10orf10 (11716521_a_at) / Fold change /veh C10orf10 (11716521_a_at) / RFU C5orf56 (11738089_at) / Fold change /veh C5orf56 (11738089_at) / RFU CYB561 (11721691_x_at) / Fold change /veh CYB561 (11721691_x_at) / RFU ANKRD19P (11752326_a_at) / Fold change /veh ANKRD19P (11752326_a_at) / RFU OR2T12 /// OR2T33 /// OR2T8 (11738714_s_at) / Fold change /veh OR2T12 /// OR2T33 /// OR2T8 (11738714_s_at) / RFU VCAN (11748164_a_at) / Fold change /veh VCAN (11748164_a_at) / RFU JSRP1 (11732532_at) / Fold change /veh JSRP1 (11732532_at) / RFU KRTAP10-11 (11738290_x_at) / Fold change /veh KRTAP10-11 (11738290_x_at) / RFU MYO3A (11730013_a_at) / Fold change /veh MYO3A (11730013_a_at) / RFU EBF3 (11725865_a_at) / Fold change /veh EBF3 (11725865_a_at) / RFU CAMK2N1 (11719241_x_at) / Fold change /veh CAMK2N1 (11719241_x_at) / RFU C5orf56 (11738088_a_at) / Fold change /veh C5orf56 (11738088_a_at) / RFU OLFML3 (11715873_a_at) / Fold change /veh OLFML3 (11715873_a_at) / RFU LOC100653217 /// NTM (11731650_a_at) / Fold change /veh LOC100653217 /// NTM (11731650_a_at) / RFU MAPK11 (11762145_a_at) / Fold change /veh MAPK11 (11762145_a_at) / RFU FIZ1 (11724087_x_at) / Fold change /veh FIZ1 (11724087_x_at) / RFU OASL (11726364_x_at) / Fold change /veh OASL (11726364_x_at) / RFU SOX15 (11748057_x_at) / Fold change /veh SOX15 (11748057_x_at) / RFU CD79A (11719716_a_at) / Fold change /veh CD79A (11719716_a_at) / RFU HIST1H1D (11736915_at) / Fold change /veh HIST1H1D (11736915_at) / RFU CASKIN2 (11723855_a_at) / Fold change /veh CASKIN2 (11723855_a_at) / RFU LOC730098 (11760151_x_at) / Fold change /veh LOC730098 (11760151_x_at) / RFU OR4N2 (11742367_at) / Fold change /veh OR4N2 (11742367_at) / RFU PRRT2 (11749266_a_at) / Fold change /veh PRRT2 (11749266_a_at) / RFU SNX32 (11753110_a_at) / Fold change /veh SNX32 (11753110_a_at) / RFU CDHR5 (11726645_a_at) / Fold change /veh CDHR5 (11726645_a_at) / RFU RCAN1 (11760418_a_at) / Fold change /veh RCAN1 (11760418_a_at) / RFU FAM167A (11723789_a_at) / Fold change /veh FAM167A (11723789_a_at) / RFU FAM26E (11764081_at) / Fold change /veh FAM26E (11764081_at) / RFU ISYNA1 (11749810_s_at) / Fold change /veh ISYNA1 (11749810_s_at) / RFU ACY1 (11761880_at) / Fold change /veh ACY1 (11761880_at) / RFU 11764098_at / Fold change /veh 11764098_at / RFU SAMD14 (11745864_x_at) / Fold change /veh SAMD14 (11745864_x_at) / RFU NPB (11741838_a_at) / Fold change /veh NPB (11741838_a_at) / RFU TMPRSS6 (11731388_a_at) / Fold change /veh TMPRSS6 (11731388_a_at) / RFU KRTAP10-2 (11738614_at) / Fold change /veh KRTAP10-2 (11738614_at) / RFU ARHGAP8 /// PRR5-ARHGAP8 (11727945_x_at) / Fold change /veh ARHGAP8 /// PRR5-ARHGAP8 (11727945_x_at) / RFU KRTAP5-7 /// NADSYN1 (11734609_at) / Fold change /veh KRTAP5-7 /// NADSYN1 (11734609_at) / RFU RASL12 (11751679_a_at) / Fold change /veh RASL12 (11751679_a_at) / RFU CDKN2B (11736163_a_at) / Fold change /veh CDKN2B (11736163_a_at) / RFU PRF1 (11729649_at) / Fold change /veh PRF1 (11729649_at) / RFU, ZNF638 /// ZNF638-IT1 / Fold change vs veh, ZNF638 /// ZNF638-IT1 / RFU, PANK3 / Fold change vs veh, PANK3 / RFU, SH3YL1 / Fold change vs veh, SH3YL1 / RFU, ZEB2 / Fold change vs veh, ZEB2 / RFU, NRIP1 / Fold change vs veh, NRIP1 / RFU, PTTG1IP / Fold change vs veh, PTTG1IP / RFU, CAPN2 / Fold change vs veh, CAPN2 / RFU, MED14 / Fold change vs veh, MED14 / RFU, SNORA58 / Fold change vs veh, SNORA58 / RFU, C1orf63 / Fold change vs veh, C1orf63 / RFU, LRRFIP1 / Fold change vs veh, LRRFIP1 / RFU, NDUFAF7 / Fold change vs veh, NDUFAF7 / RFU, SLC12A2 / Fold change vs veh, SLC12A2 / RFU, IBTK / Fold change vs veh, IBTK / RFU, ESF1 / Fold change vs veh, ESF1 / Fold change vs veh, TMEM50B / RFU, TAOK1 / Fold change vs veh, TAOK1 / RFU, ACBD3 / Fold change vs veh, ACBD3 / RFU, TMA16 / Fold change vs veh, TMA16 / RFU, RWDD3 / Fold change vs veh, RWDD3 / RFU, BCAT1 / Fold change vs veh, BCAT1 / RFU, EDEM3 / Fold change vs veh, EDEM3 / RFU, TMEM33 / Fold change vs veh, TMEM33 / RFU, WDR75 / Fold change vs veh, WDR75 / RFU, AHCTF1 / Fold change vs veh, AHCTF1 / RFU, TFRC / Fold change vs veh, TFRC / RFU, ZDHHC17 / Fold change vs veh, ZDHHC17 / RFU, NOM1 / Fold change vs veh, NOM1 / RFU, ARL8B / Fold change vs veh, ARL8B / RFU, ZBTB11 / Fold change vs veh, ZBTB11 / RFU, TAMM41 / Fold change vs veh, TAMM41 / RFU, KIAA1704 /// LOC100996395 / Fold change vs veh, KIAA1704 /// LOC100996395 / RFU, ING1 / Fold change vs veh, ING1 / RFU, TRMT61B / Fold change vs veh, TRMT61B / RFU, FUBP3 / Fold change vs veh, FUBP3 / RFU, TP53 / Fold change vs veh, TP53 / RFU, TNKS2 / Fold change vs veh, TNKS2 / RFU, ZFP14 / Fold change vs veh, ZFP14 / RFU, ACTR2 / Fold change vs veh, ACTR2 / RFU, PPP3R1 / Fold change vs veh, PPP3R1 / RFU, PIK3R1 / Fold change vs veh, PIK3R1 / RFU, HNRNPA1 / Fold change vs veh, HNRNPA1 / RFU, RNF170 / Fold change vs veh, RNF170 / RFU, ZNF28 / Fold change vs veh, ZNF28 / RFU, RNGTT / Fold change vs veh, RNGTT / RFU, OGT / Fold change vs veh, OGT / RFU, BRD1 / Fold change vs veh, BRD1 / RFU, MARS / Fold change vs veh, MARS / RFU, ZNF655 / Fold change vs veh, ZNF655 / RFU, FAHD1 / Fold change vs veh, FAHD1 / RFU, BDP1 / Fold change vs veh, BDP1 / RFU, LRRCC1 / Fold change vs veh, LRRCC1 / RFU, ARID1A / Fold change vs veh, ARID1A / RFU, ZNF146 / Fold change vs veh, ZNF146 / RFU, ZNF330 / Fold change vs veh, ZNF330 / RFU, GPN3 / Fold change vs veh, GPN3 / RFU, C9orf123 / Fold change vs veh, C9orf123 / RFU, N4BP2L2 / Fold change vs veh, N4BP2L2 / RFU, ARFIP1 / Fold change vs veh, ARFIP1 / RFU, FAM179B / Fold change vs veh, FAM179B / RFU, BCL10 / Fold change vs veh, BCL10 / RFU, UHRF1BP1L / Fold change vs veh, UHRF1BP1L / RFU, BET1 / Fold change vs veh, BET1 / RFU, CNOT2 / Fold change vs veh, CNOT2 / RFU, ZNF268 / Fold change vs veh, ZNF268 / Fold change vs veh, ZNF507 / RFU, DGCR2 / Fold change vs veh, DGCR2 / RFU, WDSUB1 / Fold change vs veh, WDSUB1 / Fold change vs veh, HSP90B1 /// MIR3652 / RFU, ADSS / Fold change vs veh, ADSS / RFU, GK / Fold change vs veh, GK / RFU, ZNF148 / Fold change vs veh, ZNF148 / RFU, TAF9 / Fold change vs veh, TAF9 / RFU, SLC1A5 / Fold change vs veh, SLC1A5 / RFU, SLMO2 / Fold change vs veh, SLMO2 / RFU, ABCC4 / Fold change vs veh, ABCC4 / RFU, LOC101060439 /// RAP1B / Fold change vs veh, LOC101060439 /// RAP1B / RFU, RFX7 / Fold change vs veh, RFX7 / RFU, GTPBP10 / Fold change vs veh, GTPBP10 / RFU, CNEP1R1 / Fold change vs veh, CNEP1R1 / RFU, BIVM-ERCC5 /// ERCC5 / Fold change vs veh, BIVM-ERCC5 /// ERCC5 / RFU, ILF3 / Fold change vs veh, ILF3 / RFU 11762660_at / Fold change /veh 11762660_at / RFU VCAN (11757783_s_at) / Fold change /veh VCAN (11757783_s_at) / RFU DDX43 (11728927_at) / Fold change /veh DDX43 (11728927_at) / RFU KRT8 (11758188_x_at) / Fold change /veh KRT8 (11758188_x_at) / RFU NKD1 (11759106_at) / Fold change /veh NKD1 (11759106_at) / RFU SRD5A1 (11742802_a_at) / Fold change /veh SRD5A1 (11742802_a_at) / RFU TPSAB1 /// TPSB2 (11721975_s_at) / Fold change /veh TPSAB1 /// TPSB2 (11721975_s_at) / RFU GSTM3 (11746129_a_at) / Fold change /veh GSTM3 (11746129_a_at) / RFU IL23R (11737362_x_at) / Fold change /veh IL23R (11737362_x_at) / RFU TMEM51 (11727254_a_at) / Fold change /veh TMEM51 (11727254_a_at) / RFU PIWIL2 (11732686_x_at) / Fold change /veh PIWIL2 (11732686_x_at) / RFU ORM1 (11744905_x_at) / Fold change /veh ORM1 (11744905_x_at) / RFU CCDC152 (11743942_at) / Fold change /veh CCDC152 (11743942_at) / RFU ECM1 (11717891_a_at) / Fold change /veh ECM1 (11717891_a_at) / RFU IL23R (11748794_a_at) / Fold change /veh IL23R (11748794_a_at) / RFU TNFAIP8L3 (11732012_x_at) / Fold change /veh TNFAIP8L3 (11732012_x_at) / RFU MBOAT4 (11741988_at) / Fold change /veh MBOAT4 (11741988_at) / RFU 11764193_at / Fold change /veh 11764193_at / RFU TMEM53 (11763286_at) / Fold change /veh TMEM53 (11763286_at) / RFU MAGEB2 (11727129_at) / Fold change /veh MAGEB2 (11727129_at) / RFU TMEM200A (11744735_a_at) / Fold change /veh TMEM200A (11744735_a_at) / RFU CCDC152 (11751479_a_at) / Fold change /veh CCDC152 (11751479_a_at) / RFU FAM211A (11726209_a_at) / Fold change /veh FAM211A (11726209_a_at) / RFU RGS16 (11746705_a_at) / Fold change /veh RGS16 (11746705_a_at) / RFU VCAN (11755009_s_at) / Fold change /veh VCAN (11755009_s_at) / RFU RHOB (11743442_s_at) / Fold change /veh RHOB (11743442_s_at) / RFU RGS16 (11720943_a_at) / Fold change /veh RGS16 (11720943_a_at) / RFU RGS16 (11720944_at) / Fold change /veh RGS16 (11720944_at) / RFU, VPS4B / Fold change vs veh, VPS4B / RFU, CREB1 / Fold change vs veh, CREB1 / RFU, DNAJC13 / Fold change vs veh, DNAJC13 / RFU, GNAQ / Fold change vs veh, GNAQ / RFU, CDK5R1 / Fold change vs veh, CDK5R1 / RFU, ZRANB3 / Fold change vs veh, ZRANB3 / RFU, CUL4A / Fold change vs veh, CUL4A / RFU, CCNY / Fold change vs veh, CCNY / RFU, UFL1 / Fold change vs veh, UFL1 / RFU, COG3 / Fold change vs veh, COG3 / RFU, DIAPH2 / Fold change vs veh, DIAPH2 / RFU, SKA2 / Fold change vs veh, SKA2 / RFU, AFF3 / Fold change vs veh, AFF3 / RFU, LMF1 / Fold change vs veh, LMF1 / RFU, IPO11 / Fold change vs veh, IPO11 / RFU, DFFB / Fold change vs veh, DFFB / RFU, FOXP1 / Fold change vs veh, FOXP1 / RFU, CARD8 / Fold change vs veh, CARD8 / RFU, STRN3 / Fold change vs veh, STRN3 / RFU, ADK / Fold change vs veh, ADK / RFU, RASSF2 / Fold change vs veh, RASSF2 / RFU, WIPF1 / Fold change vs veh, WIPF1 / RFU, LARP1B / Fold change vs veh, LARP1B / RFU, RASA1 / Fold change vs veh, RASA1 / RFU, RB1 / Fold change vs veh, RB1 / RFU, PPFIA1 / Fold change vs veh, PPFIA1 / RFU, MAT2A / Fold change vs veh, MAT2A / RFU, CCT5 / Fold change vs veh, CCT5 / RFU, WDR92 / Fold change vs veh, WDR92 / RFU, CUX1 / Fold change vs veh, CUX1 / RFU, TTC7A / Fold change vs veh, TTC7A / RFU, TMEM135 / Fold change vs veh, TMEM135 / RFU, DEPTOR / Fold change vs veh, DEPTOR / RFU, CPM / Fold change vs veh, CPM / RFU, DNAJB6 / Fold change vs veh, DNAJB6 / RFU, CACNA2D3 / Fold change vs veh, CACNA2D3 / RFU, DTX4 / Fold change vs veh, DTX4 / RFU, TFCP2 / Fold change vs veh, TFCP2 / RFU, GMCL1 /// GMCL1P1 / Fold change vs veh, GMCL1 /// GMCL1P1 / RFU, AEBP2 / Fold change vs veh, AEBP2 / RFU, SNHG1 /// SNORD22 /// SNORD25 /// SNORD26 /// SNORD27 /// SNORD28 /// SNORD29 /// SNORD31 / Fold change vs veh, SNHG1 /// SNORD22 /// SNORD25 /// SNORD26 /// SNORD27 /// SNORD28 /// SNORD29 /// SNORD31 / Fold change (Aza/veh), C12orf56 (ProbeSet 11735607_a_at) / Fold change (ACY-1035/veh), C12orf56 (ProbeSet 11735607_a_at) / Fold change (Aza/veh), FGFR1OP (ProbeSet 11751329_s_at) / Fold change (ACY-1035/veh), FGFR1OP (ProbeSet 11751329_s_at) / Fold change (Aza/veh), VPS36 (ProbeSet 11739960_a_at) / Fold change (ACY-1035/veh), VPS36 (ProbeSet 11739960_a_at) / RFU SYPL1 (11715823_x_at) / Fold change /veh SYPL1 (11715823_x_at) / RFU IGFBP7 (11715501_s_at) / Fold change /veh IGFBP7 (11715501_s_at) / RFU REEP3 (11722064_at) / Fold change /veh REEP3 (11722064_at) / RFU IGLL1 (11728026_x_at) / Fold change /veh IGLL1 (11728026_x_at): dose or concentration left out as unconfirmed.

Take `Nc1ccc(-c2cccs2)cc1NC(=O)c1ccc2c(c1)cc(C1CC1)n2CCN1CCOCC1` [ACY-1035]: the “Fold change /veh TMPRSS4 (11747572_a_at)” value was 1.09.
